Laboratory results: US20250082624A1, “METHODS OF TREATING COGNITIVE IMPAIRMENT” (NeuroTherapia, Inc., priority 2023, published 2025)
Where “and” joins values, the source holds several entries; their conditions need not be identical. Equal values may be shown once. Entries after “also recorded” stand apart in the source; their conditions may differ.

What was measured:
[1] = test system: healthy volunteers; assay: Phase 1a single ascending dose study; type: in vivo, human
[2] = test system: volunteers and AD patients; assay: 24-hour EEG safety assessment and post-hoc qEEG analysis; type: in vivo, human; details: AD patients, 90 mg QD 7 days, post hoc exploratory
Description: Protocol-specified EEG assessments were for safety assessment of any potential epileptogenic changes. A post-hoc analysis of quantitative EEG (qEEG) changes was also performed.
(§1) An informational letter was filed with the FDA to inform them of this study. The study was designed as follows: • 3 healthy cohorts (cohorts A-C) followed by AD cohort (cohort D) treated at MTD • 6 treated, 2 placebos in each cohort • Doses: 10, 30, 90 mg/treatment—latter doses can be adjusted based on PK assessment • In unit, 7 days of treatment • Monitor vertigo with various tests: (1) timed get-up and go, (2) Nystagmus test, (3) Romberg test, and (4) changes in orthostatic blood pressure (Day 1, 3 and 8) • Use 24 hr EEG monitoring for CNS safety assessment • Assess plasma biomarkers of inflammation and AD pre- and post-treatment in AD cohort • Assess changes on cognition post-treatment using MMSE and ADAS-cog • Fed/fasted study to determine food effects on PK as a subset of the Phase 1b
No subjects had clinically meaningful abnormal values or changes from baseline, nor differences between placebo and active drug, in EEG readings in any of the 4 cohorts.

[3] = test system: AD cohort; assay: Cognitive testing MOCA / MMSE in AD cohort; type: in vivo, human; parameters: MOCA / MOCA Mean (StdDev): scale not given here; details: 90 mg QD 7 days
Excerpt: (§2) Methods: All study procedures were approved by the IRB, and informed consent was obtained. Three cohorts of volunteers 45-80 years of age with well-controlled comorbidities (NOAD) and one cohort of AD patients diagnosed with cognitive impairment consistent with prodromal AD per International Working Group criteria or mild AD per National Institute on Aging—Alzheimer's Association criteria (n=6 active, 2 placebo per cohort) were enrolled. Participants were admitted to the study site for the duration of the dosing and returned 7-12 days after the last dose for a safety visit. Participants received NTRX-07 (10, 30, or 90 mg) or a placebo in a double-blinded randomization orally once daily for seven days. Subjects were assessed for changes in vital signs, including maneuvers to induce lightheadedness, electrocardiograms, 24-hour electroencephalograms (EEG), and safety laboratory studies. The second cohort returned and received a single repeat dose after a standard high-fat meal. The AD cohort also underwent cognitive testing and had blood samples for biomarkers drawn. Subjects had PK sampling done after the first and final dose of the study drug. An independent safety review committee conducted a blinded safety review of adverse events and plasma levels between each cohort.
(§3) Assessments: Subjects were assessed for changes in vital signs, orthostatic blood pressure, Romberg test, nystagmus, timed get up and go, electrocardiograms, electroencephalograms (EEG), and laboratory studies. Subjective questionnaires of drug effects (ARCI-M) were administered. Cohort B returned and received a single repeat dose after a standard high-fat meal. The AD cohort also underwent cognitive testing (MMSE, ADAS-COG, MOCA) and had blood samples for biomarkers drawn.
Exploratory endpoints include cognitive testing and potential plasma biomarkers of inflammation. The small group size (6 on treatment, 2 placebo) precludes statistical analysis, but the goals were to gain insights for future study design. Exploratory endpoints include: • MMSE, MOCA & ADAS-COG • IL-12p70, IL-10, IL-4, IL-5, INFg, IL-6, IL-8, IL-22, TNFa, IL-10, hCRP, Chitinase-3, TREM-2, IL-2, Neurogranin, Total Tau, AB42, AB40, NF-LIGHT, pTau-181

[4] = test system: healthy volunteers; details: cited from earlier work
[5] = test system: dogs; assay: Dog toxicity (CNS safety issue raised by FDA); type: in vivo; details: 200 mg/kg/day
[6] = test system: volunteers and AD patients; assay: Phase 1b MAD safety and tolerability (adverse events, ECG, safety labs); type: in vivo, human
Excerpt: as §2, §3, §1

[7] = test system: volunteers and AD patients; assay: Orthostatic blood pressure and vertigo tests (timed get-up and go, Nystagmus test, Romberg test); type: in vivo, human; details: Phase 1b
Description: as §3, §1

[8] = test system: APP/PS1 mouse model of AD; details: cited from earlier work
[9] = Phase 1b, individual subjects on NTRX-07, Cohorts C and D (90 mg QD)

CC1(Cc2ccccc2)COc2cc(C(=O)N3CCCCC3)ccc21 (stereo not drawn) [NTRX-07, 3-benzyl-3-methyl-2,3-dihydrobenzofuran-6-carboxylic acid-piperidine amide]
No adverse events level ([1]; Phase 1a single ascending dose): 2 mg/kg
Adverse events in Phase 1a ([1]; single ascending dose): Only minor, non-dose limiting adverse events
qEEG mean frequency (AD effect) [2]: treatment partially reversed this AD effect; also recorded: Trend towards improvement; also recorded: partial reversion of AD effect; also recorded: increasing mean frequency
Changes in cognitive scores (MMSE, MOCA) [3]: No significant changes in cognitive scores; also recorded: No appreciable changes
MOCA Mean (StdDev) ([3]; Day 8): 19.7 ± 1.8
MOCA ([3]; Day 8, individual subjects): 22 and 21 and 19 and 20 and 17
MOCA Mean (StdDev) ([3]; Day −2 (baseline)): 20.5 ± 2.6
MOCA ([3]; Day −2 (baseline), individual subjects): 22 and 21 and 24 and 18 and 17
MOCA Mean (StdDev) ([3]; EOS Day 14-19): 20.7 ± 3.5
MOCA ([3]; EOS Visit (Day 14-19), individual subjects): 25 and 15 and 20 and 23 and 22 and 19
Adverse effect at high doses ([4]; single doses of 3.5 and 4 mg/kg): transient lightheadedness
Major adverse effects ([4]; single doses up to 2 mg/kg, healthy volunteers): no major adverse effects
Seizures [5]: Seizures in 1 or 2 dogs
Changes in ECG or safety labs ([6]; Phase 1b): No clinically meaningful changes
Dose-limiting toxicities / serious adverse events ([6]; Phase 1b, 10, 30, 90 mg oral QD for 7 days): no dose-limiting or serious adverse events; also recorded: safely administered; also recorded: No dose limiting toxicities at any of the tested doses
Adverse events observed during trial: Description of Event [6, 9]: Subfebrility; also recorded: Heartburn; also recorded: Dry mouth; also recorded: Xerostomia; also recorded: Hypertension; also recorded: Nausea; also recorded: Hypertension,; also recorded: tachycardia; also recorded: Dizziness; also recorded: Presyncope; also recorded: Weakness
Adverse events observed during trial: Related to Study Drug? [6, 9]: Possible (7×) and Probable and None (2×)
Adverse events observed during trial: Severity [6, 9]: Mild (8×) and Moderate (2×)
Orthostatic events observed during trial: Severity ([7]; individual subjects on NTRX-07 (Cohort B 30 mg, C and D 90 mg QD)): Mild
Primary side effect observed ([7]; usually with early doses): mild transient orthostatic changes in blood pressure
Orthostasis: Incidences ([7]; treated subjects): 16.7%
Orthostasis: Subjects who had an incident ([7]; treated subjects): 16.7%
Clearance of Aβ ([8]; AD models, FIG. 4): improved clearance of A-beta proteins; also recorded: increases clearance of Aβ
Aβ plaque clearance ([8]; APP/PS1 (Tg(APPswe,PSEN1dE9)85Dbo) mouse, FIG. 5): promotes Aβ plaque clearance
CB2 increase / Iba1 colocalization in microglia (microglial activation) ([8]; APP/PS1 mouse model of AD, FIG. 3): returned towards baseline
Inflammatory changes in the brain ([8]; preclinical AD models): decreased inflammatory changes in the brain
Long-term potentiation ([8]; preclinical AD models): improved long-term potentiation
